According to patent US20140057915A1, “KINASE INHIBITORS” (TOPIVERT PHARMA LIMITED, priority 2012, published 2014):
Read-outs that look alike come from different tables or passages of the source.

Assays:
[1] = system: IL-8 release, d-U937 cells; assay: LPS-induced IL-8 release in d-U937 cells; assay type: cell-based; conditions: Homo sapiens, dU937
Procedure, shortened: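 IL-8 release after a 4 hr challenge with LPS (0.1 μg/mL, E. coli 0111:B4) following a 2 hr compound pretreatment. Cells were human U937 monocytes differentiated to macrophage-type with PMA 100 ng/mL for 48–72 hr. Relative 50% effective concentration derived from concentration–response data.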

[2] = system: ICAM-1 expression, BEAS2B cells; assay: Poly I:C-induced ICAM-1 expression in BEAS2B cells; assay type: cell-based; conditions: Homo sapiens, BEAS-2B; read-out: Poly IC induced ICAM1 in BEAS2B, IC50
Procedure, shortened: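 BEAS2B human bronchial epithelial cells pre-incubated 2 h with compound, then transfected with poly I:C (1 μg/mL) plus Oligofectamine. After 18 h, cell-surface ICAM-1 read by cell-based ELISA (A450–655), normalised to Crystal Violet cell number (A595); inhibition calculated against vehicle control at each concentration.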

[3] = molecular target: cSrc (Homo sapiens, UniProt P12931); assay: c-Src enzyme inhibition (FRET); assay type: biochemical
cSrc, sequence (P12931 whole entry): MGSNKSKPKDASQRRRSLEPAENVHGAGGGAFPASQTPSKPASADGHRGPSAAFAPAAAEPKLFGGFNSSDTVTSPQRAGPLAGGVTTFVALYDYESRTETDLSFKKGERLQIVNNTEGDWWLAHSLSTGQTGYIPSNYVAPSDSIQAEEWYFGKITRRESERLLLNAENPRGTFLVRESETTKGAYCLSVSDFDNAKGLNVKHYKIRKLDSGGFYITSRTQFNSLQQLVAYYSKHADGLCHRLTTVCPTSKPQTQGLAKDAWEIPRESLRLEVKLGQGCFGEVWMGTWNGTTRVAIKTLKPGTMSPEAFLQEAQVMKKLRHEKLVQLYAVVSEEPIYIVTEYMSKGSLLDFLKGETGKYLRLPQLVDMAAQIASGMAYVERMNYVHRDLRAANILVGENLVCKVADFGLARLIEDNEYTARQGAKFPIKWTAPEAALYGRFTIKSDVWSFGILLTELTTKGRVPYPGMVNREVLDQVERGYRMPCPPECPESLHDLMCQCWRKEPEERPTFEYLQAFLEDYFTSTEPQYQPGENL
Procedure, shortened: (§1)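 2 hr RT enzyme + cpd (added solns 4/0.4/0.04/0.004 μg/mL); + FRET peptide (8 μM soln) + ATP soln (c-Src 800 μM, Syk 60 μM), 1 hr; protease development 1 hr; read donor/acceptor emission ratio.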

[4] = system: TNFα release, d-U937 cells; assay: LPS-induced TNFα release in d-U937 cells; assay type: cell-based; conditions: Homo sapiens, dU937; for EC50: relative to 10 μg/mL BIRB796, Table 4c1, read-out: LPS Induced Release of Cytokine in d-U937 Cells, TNFα REC50
Procedure, shortened: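 U937 cells differentiated with PMA (100 ng/mL, 48–72 hr), pre-treated with compound for 2 hr, then stimulated with E. coli LPS (0.1 μg/mL) for 4 hr. Supernatant cytokine measured by sandwich ELISA; inhibition versus vehicle control, REC50 from concentration-response curve.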

[5] = system: d-U937 cells; assay: Cell viability: MTT assay; assay type: cell-based, human; conditions: 1 μg/mL
Procedure, shortened: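 Differentiated U937 cells exposed to compound at 1 or 10 μg/mL, either 4 h in 5% FCS or 24 h in 10% FCS RPMI1640. MTT then added for 1 h, formazan dissolved in DMSO and read at 550 nm. Viability loss given as % versus 0.5% DMSO vehicle; apparent gains appear negative.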

[6] = molecular target: p38 MAPKα isoform (MAPK14) (Homo sapiens, UniProt Q16539); assay: p38 MAPKα enzyme inhibition (FRET, Z-LYTE), Method 1; assay type: biochemical; conditions: Table 4a1
p38 MAPKα isoform (MAPK14), sequence (Q16539 whole entry, canonical isoform): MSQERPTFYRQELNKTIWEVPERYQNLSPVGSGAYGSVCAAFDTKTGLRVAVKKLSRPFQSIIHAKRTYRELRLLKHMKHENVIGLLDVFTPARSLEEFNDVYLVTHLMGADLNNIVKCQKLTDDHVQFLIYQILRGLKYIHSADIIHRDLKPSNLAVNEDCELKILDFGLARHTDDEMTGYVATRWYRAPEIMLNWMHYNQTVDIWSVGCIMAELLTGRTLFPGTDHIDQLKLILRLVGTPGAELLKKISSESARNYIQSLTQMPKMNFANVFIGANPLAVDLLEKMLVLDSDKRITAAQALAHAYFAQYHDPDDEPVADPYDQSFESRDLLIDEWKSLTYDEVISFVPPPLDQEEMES
Protocol: The enzyme inhibitory activities of compounds disclosed herein are determined by FRET using synthetic peptides labelled with both donor and acceptor fluorophores (Z-LYTE, Invitrogen Ltd., Paisley, UK).
The following two assay variants are used for determination of p38 MAPKα inhibition.
The inhibitory activities of test compounds against the p38 MAPKα isoform (MAPK14: Invitrogen), are evaluated indirectly by determining the level of activation/phosphorylation of the down-stream molecule, MAPKAP-K2. The p38 MAPKα protein (80 ng/mL, 2.5 μL) is mixed with the test compound (2.5 μL of either 4 μg/mL, 0.4 μg/mL, 0.04 μg/mL or 0.004 μg/mL) for 2 hr at RT. […] The mixture is incubated for 1 hr at RT. Development reagent (protease, 5 μL) is added for 1 hr prior to detection in a fluorescence microplate reader (Varioskan® Flash, ThermoFisher Scientific).
In all cases, the site-specific protease cleaves non-phosphorylated peptide only and eliminates the FRET signal. Phosphorylation levels of each reaction are calculated using the ratio of coumarin emission (donor) over fluorescein emission (acceptor), for which high ratios indicate high phosphorylation and low ratios indicate low phosphorylation levels.

[7] = molecular target: Syk (Homo sapiens, UniProt P43405); assay: Syk enzyme inhibition (FRET); assay type: biochemical
Procedure, shortened: as §1

[8] = molecular target: T1, GSK3α (Homo sapiens, UniProt P49840); assay: GSK 3α enzyme inhibition (FRET), Method 1; assay type: biochemical; conditions: Table 4a1
T1 sequence (P49840 whole entry): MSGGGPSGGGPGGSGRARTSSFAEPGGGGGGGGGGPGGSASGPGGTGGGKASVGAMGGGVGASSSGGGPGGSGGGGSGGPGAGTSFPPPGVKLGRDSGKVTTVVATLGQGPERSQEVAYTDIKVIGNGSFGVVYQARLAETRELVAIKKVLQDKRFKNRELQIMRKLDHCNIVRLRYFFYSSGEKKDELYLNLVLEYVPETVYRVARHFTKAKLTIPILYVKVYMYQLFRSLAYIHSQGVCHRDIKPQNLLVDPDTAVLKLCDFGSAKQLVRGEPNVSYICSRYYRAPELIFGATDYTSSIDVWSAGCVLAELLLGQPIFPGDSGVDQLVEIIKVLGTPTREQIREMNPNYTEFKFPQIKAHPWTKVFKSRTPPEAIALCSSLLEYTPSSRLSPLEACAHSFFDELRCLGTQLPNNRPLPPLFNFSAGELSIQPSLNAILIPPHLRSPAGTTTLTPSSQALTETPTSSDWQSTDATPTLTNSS
Procedure, shortened: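 Inhibition is scored from phosphorylation of a dual-labelled synthetic peptide, measured by FRET after protease cleavage of unphosphorylated substrate. Incubations are 2 hr compound with enzyme, then 1 hr kinase reaction.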

[9] = system: mice; assay: Mouse cigarette (tobacco) smoke model; assay type: in vivo; conditions: 1.75 μg/mouse (35 μL, bid, i.n.)
Description: The result of treatment with compound Example (8) on macrophage and neutrophil accumulation in BALF in the mouse cigarette smoke model was investigated (Table 5).

[10] = molecular target: T1, GSK3α; assay: GSK 3α enzyme inhibition (FRET), Method 2; assay type: biochemical; conditions: Table 4a2, different laboratory
[11] = system: IL-8 release, PBMCs; assay: LPS-induced IL-8 release in PBMC cells; assay type: cell-based; conditions: Homo sapiens, LPS stimulated, read-out: IC50 Values for Inhibition of Cytokine Release, PBMCs, IL-8
Procedure, shortened: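 PBMCs from healthy donors pretreated with compound for 2 h, then stimulated with 1 ng/ml LPS (E. coli 0111:B4) for 24 h at 37 °C, 5% CO2. Supernatant IL-8 and TNFα measured by sandwich ELISA with fluorescence read-out.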

[12] = system: PBMC cells; assay: Cell mitosis assay; assay type: cell-based; conditions: Homo sapiens, read-out: % Inhibition of mitosis in PBMC cells at 5 μg/mL
Procedure, shortened: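 Healthy-donor PBMCs (3 million cells per sample) stimulated with 2% PHA for 48 hr, then exposed 20 hr to varying compound concentrations. Demecolcine (0.1 μg/mL) added 2 hr before collection to arrest cells in metaphase; read by flow cytometry gated on lymphocytes.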

[13] = system: IFN gamma release, PBMCs; assay: IFN gamma release in CD3/CD28 stimulated PBMC cells; assay type: cell-based; conditions: Homo sapiens, read-out: IC50 Values for Inhibition of Cytokine Release, PBMCs, IFNγ
Protocol: (§2) (c) IL-2 and IFN Gamma Release in CD3/CD28 Stimulated PBMC Cells
(§3) PBMCs from healthy subjects are separated from whole blood using a density gradient (Lymphoprep, Axis-Shield Healthcare). Cells are added to a 96 well plate pre-coated with a mixture of […] monoclonal antibodies (0.3 ug/ml eBioscience and 3 ug/ml BD Pharmingen respectively). Compound at the desired concentration is then added to the wells and the plate left for 3 days under normal tissue culture conditions. Supernatants are harvested and IL-2 and IFN gamma release determined by Sandwich ELISA (Duo-set, R&D System). The IC50 is determined from the dose response curve.

[14] = system: IL-8 release, HT29 cells; assay: IL-1β-induced IL-8 release in HT29 cells; assay type: cell-based; conditions: Homo sapiens, HT-29; IL-1β stimulated; read-out: IC50 Values for Inhibition of Cytokine Release, HT29 cells, IL-8
Protocol: (d) IL-1β-Induced IL-8 Release in HT29 Cells
HT29 cells, a human colon adenocarcinoma cell line, are plated in a 96 well plate (24 hrs) and pre-treated with compounds at the desired concentration for 2 hours before addition of 5 ng/ml of IL-1β (Abeam) for 24 hours, Supernatants are harvested for IL-8 quantification by Sandwich ELISA (Duo-set, R&D System). The IC50 is determined from the dose response curve.

[15] = molecular target: T2, human ether a go-go (hERG) channel (Homo sapiens, UniProt Q12809); assay: hERG inhibition (IonWorks patch clamp electrophysiology); assay type: cell-based; conditions: maximum final assay concentration 3 μM
T2 construct: a Chinese Hamster Lung cell line stably expressing the full length hERG channel
T2 sequence (Q12809 whole entry): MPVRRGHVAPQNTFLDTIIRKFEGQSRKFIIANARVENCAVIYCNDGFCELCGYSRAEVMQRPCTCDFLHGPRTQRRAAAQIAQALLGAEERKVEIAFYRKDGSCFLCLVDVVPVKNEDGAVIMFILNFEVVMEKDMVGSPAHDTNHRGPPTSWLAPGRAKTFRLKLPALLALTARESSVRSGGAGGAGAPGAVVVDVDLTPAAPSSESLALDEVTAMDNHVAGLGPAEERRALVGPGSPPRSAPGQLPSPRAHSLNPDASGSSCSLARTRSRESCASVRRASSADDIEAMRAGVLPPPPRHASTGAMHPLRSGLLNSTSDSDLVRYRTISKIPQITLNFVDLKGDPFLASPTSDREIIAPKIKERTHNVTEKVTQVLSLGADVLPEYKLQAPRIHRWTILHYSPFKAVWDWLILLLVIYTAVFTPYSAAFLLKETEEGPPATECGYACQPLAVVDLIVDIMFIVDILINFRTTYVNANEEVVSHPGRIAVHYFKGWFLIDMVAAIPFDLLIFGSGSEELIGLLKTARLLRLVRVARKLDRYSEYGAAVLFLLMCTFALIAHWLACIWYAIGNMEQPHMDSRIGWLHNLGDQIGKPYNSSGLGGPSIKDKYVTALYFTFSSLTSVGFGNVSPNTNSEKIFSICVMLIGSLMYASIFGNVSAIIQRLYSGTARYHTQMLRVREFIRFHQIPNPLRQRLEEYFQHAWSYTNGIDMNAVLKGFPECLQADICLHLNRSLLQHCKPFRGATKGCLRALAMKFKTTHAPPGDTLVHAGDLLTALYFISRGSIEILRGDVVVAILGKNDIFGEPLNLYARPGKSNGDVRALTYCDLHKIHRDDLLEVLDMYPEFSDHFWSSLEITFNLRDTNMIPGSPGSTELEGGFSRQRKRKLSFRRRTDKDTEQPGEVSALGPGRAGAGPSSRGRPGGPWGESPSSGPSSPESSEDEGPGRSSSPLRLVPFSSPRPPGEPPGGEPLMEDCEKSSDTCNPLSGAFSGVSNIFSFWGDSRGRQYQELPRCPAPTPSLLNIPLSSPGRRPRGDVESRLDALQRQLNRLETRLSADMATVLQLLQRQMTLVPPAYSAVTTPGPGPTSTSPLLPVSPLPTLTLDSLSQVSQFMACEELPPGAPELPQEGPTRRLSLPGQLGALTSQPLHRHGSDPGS
Protocol: Eight-point concentration curves were generated using serial 3-fold dilutions from the maximum final assay concentration (3 μM). Electrophysiological recordings were made from a Chinese Hamster Lung cell line stably expressing the full length hERG channel. Single cell ionic currents were measured in the perforated patch clamp configuration (100 μg/mL) amphotericin) at room temperature (21-23° C.) using an IonWorks Quattro instrument. The internal solution contained (mM): 140 KCl, 1 MgCl2, 1 EGTA, 20 HEPES and was buffered to pH 7.3. The external solution contained (mM):138 NaCl, 2.7 KCl, 0.9 CaCl2, 0.5 MgCl2, 8 Na2HPO4, 1.5 KH2PO4, also buffered to pH 7.3. Cells were clamped at a holding potential of −70 mV for 30 s and then stepped to +40 mV for 1 s. This was followed by a hyperpolarising step of 1s to −30 mV to evoke the hERG tail current. This sequence was repeated 5 times at a frequency of 0.25 Hz. Currents were measured from the tail step at the 5th pulse, and referenced to the holding current. Compounds were then incubated for 6-7 minutes prior to a second measurement of the hERG signal using an identical pulse train. Eight-point concentration curves were generated using serial 3-fold dilutions from the maximum final assay concentration (3 μM).

[16] = system: IL-2 release, PBMCs; assay: IL-2 release in CD3/CD28 stimulated PBMC cells; assay type: cell-based; conditions: Homo sapiens, read-out: IC50 Values for Inhibition of Cytokine Release, PBMCs, IL-2
Protocol: as §2, §3

[17] = Table 4c1, read-out: LPS Induced Release of Cytokine in d-U937 Cells, IL-8 IC50
[18] = Table 4a2, different laboratory

Row | Structure (SMILES) | IC50 [1, 17] [nM] | IC50 [2] [nM] | IC50 ([3]; Table 4a1) [nM] | EC50 [4] [nM] | Cell viability at time point in d-U937 cells, 4 h [5] | Cell viability at time point in d-U937 cells, 24 h [5] | IC50 [6] [nM] | IC50 ([7]; Table 4a1) [nM] | IC50 [8] [nM] | also measured
1 | COc1ccc(C(=O)NCCN(C)C)cc1Nc1nccc(Oc2ccc(NC(=O)Nc3cc(C(C)(C)C)nn3-c3ccc(C)cc3)c3ccccc23)n1 [Example 29, 3-((4-((4-(3-(3-(tert-butyl)-1-(p-tolyl)-1H-pyrazol-5-yl)ureido)naphthalen-1-yl)oxy)pyrimidin-2-yl)amino)-N-(2-(dimethylamino)ethyl)-4-methoxybenzamide] | 13.7 | 15.1 | < 1 | 3.8 | −ve (−ve and +ve indicate that the value is below and above respectively, the no significant effect threshold, defined as 30% inhibition at 1 μg/mL at the time point indicated) | −ve (−ve and +ve indicate that the value is below and above respectively, the no significant effect threshold, defined as 30% inhibition at 1 μg/mL at the time point indicated) | < 1 | 147 | 3210 | –
2 | CCC(=O)O[C@]1(C(=O)SCF)[C@H](C)C[C@H]2[C@@H]3C[C@H](F)C4=CC(=O)C=C[C@]4(C)[C@@]3(F)[C@@H](O)C[C@@]21C [fluticasone propionate] | – | – | – | – | – | – | – | – | – | neutrophil or macrophage accumulation into airways [9]: did not inhibit
3 | C#Cc1cc(Nc2nccc(Oc3ccc(NC(=O)Nc4cc(C(C)(C)C)nn4-c4ccc(C)cc4)c4ccccc34)n2)cc(C(=O)NCCN2CCOCC2)c1 [Example 75, 3-((4-((4-(3-(3-(tert-Butyl)-1-(p-tolyl)-1H-pyrazol-5-yl)ureido)naphthalen-1-yl)oxy)pyrimidin-2-yl)amino)-5-ethynyl-N-(2-morpholinoethyl)benzamide] | – | – | – | – | – | – | – | – | – | IC50 ([1]; Table 4c2, different laboratory, read-out: IC50 Values for Inhibition of Cytokine Release, dU937 cells, IL-8): 0.3 nM; IC50 [10]: 1370 nM; IC50 [11]: 1 nM; IC50 [3, 18]: 11 nM; IC50 ([4]; Table 4c2, different laboratory, read-out: IC50 Values for Inhibition of Cytokine Release, dU937 cells, TNFα): 0.4 nM; inhibition at 5 µg/mL [12]: 2.8%; IC50 [13]: 3 nM; IC50 [14]: 1.3 nM; IC50 [15]: > 3000 nM; IC50 [7, 18]: 28 nM; IC50 [16]: 76.9 nM
4 | COc1ccc(Nc2nccc(Oc3ccc(NC(=O)Nc4cc(C(C)(C)C)nn4-c4ccc(C)cc4)c4ccccc34)n2)cc1C(=O)NCCN1CCOCC1 [Example 13, 5-((4-((4-(3-(3-(tert-Butyl)-1-(p-tolyl)-1H-pyrazol-5-yl)ureido)naphthalen-1-yl)oxy)pyrimidin-2-yl)amino)-2-methoxy-N-(2-morpholinoethyl)benzamide] | 0.3 | 1.7 | 2 | 0.4 | −ve (−ve and +ve indicate that the value is below and above respectively, the no significant effect threshold, defined as 30% inhibition at 1 μg/mL at the time point indicated) | −ve (−ve and +ve indicate that the value is below and above respectively, the no significant effect threshold, defined as 30% inhibition at 1 μg/mL at the time point indicated) | 24 | 16 | 672 | –
